According to patent US20070287693A1, “Benzamide Derivatives That Act Upon The Glucokinase Enzyme” (priority 2004, published 2007):

Experiment: Plasma protein binding by equilibrium dialysis
Assay type: in vitro ADME
Conditions: rat plasma, 37° C., pH 7.4, read-out: % free in plasma
Procedure: 3) Measurements of Plasma Protein Binding of Compounds
The plasma protein binding of compounds was measured using the equilibrium dialysis technique (W. Lindner et al, J. Chromatography, 1996, 677, 1-28). Compound was dialysed at a concentration of 20 μM for 18 hours at 37° C. with plasma and isotonic phosphate buffer pH 7.4 (1 ml of each in the dialysis cell). A Spectrum® 20-cell equilibrium dialyser was used together with Teflon, semi-micro dialysis cells and Spectra/Por®2 membrane discs with a molecular weight cut off 12-14000 Dalton, 47 mm (supplied by PerBio Science UK Ltd, Tattenhall, Cheshire). Plasma and buffer samples are removed following dialysis and analysed using HPLCUV/MS (high performance liquid chromatography with UV and mass spec detection) to give the % free level in plasma. [drawing 39]

fraction unbound at 18 h, 20 μM: 0.02
Compound: CC[C@@H](CO)Oc1cc(Oc2ccc(C(=O)N3CCC3)cc2)cc(C(=O)Nc2ccn(C)n2)c1 [Example 13, 3-[4-(azetidin-1-ylcarbonyl)phenoxy]-5-{[(1S)-1-(hydroxymethyl)propyl]oxy}-N-(1-methyl-1H-pyrazol-3-yl)benzamide]
